{"source": "ChEMBL document CHEMBL1201862", "about": "“PubChem BioAssay data set” (2004)", "key": {"[1]": {"biological_target": "T1, Nucleotide-binding oligomerization domain-containing protein 1 (Homo sapiens, UniProt Q9Y239)", "T1 sequence (Q9Y239 whole entry)": "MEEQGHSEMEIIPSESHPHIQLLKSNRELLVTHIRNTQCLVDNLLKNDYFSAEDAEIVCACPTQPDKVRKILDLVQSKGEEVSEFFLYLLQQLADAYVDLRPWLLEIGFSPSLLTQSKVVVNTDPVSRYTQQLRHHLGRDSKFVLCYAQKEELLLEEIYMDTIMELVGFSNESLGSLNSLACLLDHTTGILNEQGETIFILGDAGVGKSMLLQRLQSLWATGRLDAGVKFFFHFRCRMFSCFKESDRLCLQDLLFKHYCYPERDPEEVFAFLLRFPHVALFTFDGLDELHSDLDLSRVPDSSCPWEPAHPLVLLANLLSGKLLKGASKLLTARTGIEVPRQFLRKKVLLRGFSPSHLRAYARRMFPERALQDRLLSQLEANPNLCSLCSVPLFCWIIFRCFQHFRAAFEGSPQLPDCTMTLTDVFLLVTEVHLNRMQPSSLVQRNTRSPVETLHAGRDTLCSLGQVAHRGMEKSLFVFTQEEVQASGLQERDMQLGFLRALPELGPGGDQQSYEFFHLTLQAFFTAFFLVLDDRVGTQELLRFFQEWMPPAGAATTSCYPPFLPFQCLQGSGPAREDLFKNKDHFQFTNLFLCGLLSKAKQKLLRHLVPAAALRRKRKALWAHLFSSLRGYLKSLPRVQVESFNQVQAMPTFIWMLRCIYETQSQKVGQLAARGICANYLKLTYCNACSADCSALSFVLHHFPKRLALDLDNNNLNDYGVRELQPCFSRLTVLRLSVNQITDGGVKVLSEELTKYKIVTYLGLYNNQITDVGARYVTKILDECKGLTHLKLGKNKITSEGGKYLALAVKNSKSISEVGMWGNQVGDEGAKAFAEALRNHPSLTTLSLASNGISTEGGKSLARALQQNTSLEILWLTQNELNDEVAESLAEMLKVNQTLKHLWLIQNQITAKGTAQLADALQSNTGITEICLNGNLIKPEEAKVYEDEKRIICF", "experiment": "NOD1 signaling inhibitors, SAR follow-up, revised (AID 2333)", "format": "functional"}, "[2]": {"biological_target": "Nucleotide-binding oligomerization domain-containing protein 2 (Homo sapiens, UniProt Q9HC29)", "sequence (Q9HC29 whole entry, the tested form may be a part)": "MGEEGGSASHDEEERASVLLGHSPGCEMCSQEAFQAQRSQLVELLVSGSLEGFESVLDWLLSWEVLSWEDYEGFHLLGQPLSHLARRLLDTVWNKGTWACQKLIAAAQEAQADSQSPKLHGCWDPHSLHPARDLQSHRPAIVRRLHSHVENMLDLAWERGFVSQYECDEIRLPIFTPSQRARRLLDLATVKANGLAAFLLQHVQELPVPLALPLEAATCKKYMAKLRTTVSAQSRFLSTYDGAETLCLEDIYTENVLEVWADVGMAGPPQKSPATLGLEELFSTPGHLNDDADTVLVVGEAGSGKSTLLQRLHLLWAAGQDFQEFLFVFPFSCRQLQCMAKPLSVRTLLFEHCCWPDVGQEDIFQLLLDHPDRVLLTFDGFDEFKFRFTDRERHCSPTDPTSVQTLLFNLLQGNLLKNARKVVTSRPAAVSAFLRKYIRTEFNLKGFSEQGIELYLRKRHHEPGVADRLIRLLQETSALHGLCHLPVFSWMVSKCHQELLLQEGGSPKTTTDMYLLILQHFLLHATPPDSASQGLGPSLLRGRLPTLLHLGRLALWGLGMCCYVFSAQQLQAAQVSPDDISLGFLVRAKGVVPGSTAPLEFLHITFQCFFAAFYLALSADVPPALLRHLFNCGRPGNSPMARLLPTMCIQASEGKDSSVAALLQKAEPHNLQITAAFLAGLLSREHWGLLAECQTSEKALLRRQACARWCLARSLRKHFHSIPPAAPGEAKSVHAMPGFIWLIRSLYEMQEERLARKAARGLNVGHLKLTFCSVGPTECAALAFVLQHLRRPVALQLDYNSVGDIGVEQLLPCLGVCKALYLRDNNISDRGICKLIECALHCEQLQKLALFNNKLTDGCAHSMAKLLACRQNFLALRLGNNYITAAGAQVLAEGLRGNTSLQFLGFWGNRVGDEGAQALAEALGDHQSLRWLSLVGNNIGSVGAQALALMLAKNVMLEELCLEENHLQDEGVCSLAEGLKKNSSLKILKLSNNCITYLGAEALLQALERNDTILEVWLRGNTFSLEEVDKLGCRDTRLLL", "experiment": "PubChem AID 2334", "format": "functional"}, "Tumor necrosis factor": {"biological_target": "Tumor necrosis factor (Homo sapiens, UniProt P01375)", "sequence (P01375 whole entry)": "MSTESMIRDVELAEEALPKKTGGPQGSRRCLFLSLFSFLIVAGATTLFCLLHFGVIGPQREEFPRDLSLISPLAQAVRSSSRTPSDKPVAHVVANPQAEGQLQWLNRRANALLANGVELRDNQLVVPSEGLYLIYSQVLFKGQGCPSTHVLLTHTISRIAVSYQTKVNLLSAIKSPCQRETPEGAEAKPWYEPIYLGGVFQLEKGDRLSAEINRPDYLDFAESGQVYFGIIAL", "experiment": "TNFa-triggered NF-kB activation inhibitors, SAR follow-up, cell-based, revised (AID 2337)", "format": "functional"}, "HEK293": {"system": "HEK293", "experiment": "cells", "settings": "Homo sapiens"}, "[3]": {"biological_target": "Alkaline phosphatase, placental type (Homo sapiens, UniProt P05187)", "sequence (P05187 whole entry)": "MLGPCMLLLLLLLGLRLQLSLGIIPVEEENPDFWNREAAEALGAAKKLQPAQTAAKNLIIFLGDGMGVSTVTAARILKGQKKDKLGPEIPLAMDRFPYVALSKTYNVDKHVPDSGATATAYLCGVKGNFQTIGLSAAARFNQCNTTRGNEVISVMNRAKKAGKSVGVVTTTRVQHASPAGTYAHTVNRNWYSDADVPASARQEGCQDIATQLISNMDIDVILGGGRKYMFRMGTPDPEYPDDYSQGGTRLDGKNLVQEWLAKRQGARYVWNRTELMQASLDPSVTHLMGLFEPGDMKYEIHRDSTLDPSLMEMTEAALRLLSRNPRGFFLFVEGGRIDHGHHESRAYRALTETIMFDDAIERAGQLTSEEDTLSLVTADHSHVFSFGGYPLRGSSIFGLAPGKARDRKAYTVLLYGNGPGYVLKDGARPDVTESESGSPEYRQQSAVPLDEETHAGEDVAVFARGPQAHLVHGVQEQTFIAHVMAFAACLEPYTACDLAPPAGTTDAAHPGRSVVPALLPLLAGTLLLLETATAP", "experiment": "PLAP enzyme inhibitors, confirmation, biochemical, luminescence (AID 1512)", "format": "functional"}, "[4]": {"biological_target": "T2, Alkaline phosphatase, tissue-nonspecific isozyme (Homo sapiens, UniProt P05186)", "T2 sequence (P05186 whole entry)": "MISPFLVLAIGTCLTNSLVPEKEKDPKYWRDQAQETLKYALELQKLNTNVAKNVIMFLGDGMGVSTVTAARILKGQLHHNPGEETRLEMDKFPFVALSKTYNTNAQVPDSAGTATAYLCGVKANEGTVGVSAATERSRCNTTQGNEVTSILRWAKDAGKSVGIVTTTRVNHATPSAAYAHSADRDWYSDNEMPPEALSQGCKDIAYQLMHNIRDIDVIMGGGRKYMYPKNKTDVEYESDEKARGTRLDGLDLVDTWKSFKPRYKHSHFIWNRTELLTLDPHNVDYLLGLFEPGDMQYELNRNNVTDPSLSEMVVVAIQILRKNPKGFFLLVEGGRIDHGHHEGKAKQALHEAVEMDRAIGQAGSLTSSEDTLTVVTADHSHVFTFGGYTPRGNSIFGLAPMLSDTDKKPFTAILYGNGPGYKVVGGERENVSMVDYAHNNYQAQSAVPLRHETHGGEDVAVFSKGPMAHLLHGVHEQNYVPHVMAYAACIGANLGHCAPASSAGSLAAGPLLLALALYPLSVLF", "experiment": "human TNAP enzyme inhibitors, SAR follow-up, biochemical, luminescent, dose response (AID 1056)"}, "X-box-binding protein 1": {"biological_target": "X-box-binding protein 1 (Homo sapiens, UniProt P17861)", "sequence (P17861 whole entry)": "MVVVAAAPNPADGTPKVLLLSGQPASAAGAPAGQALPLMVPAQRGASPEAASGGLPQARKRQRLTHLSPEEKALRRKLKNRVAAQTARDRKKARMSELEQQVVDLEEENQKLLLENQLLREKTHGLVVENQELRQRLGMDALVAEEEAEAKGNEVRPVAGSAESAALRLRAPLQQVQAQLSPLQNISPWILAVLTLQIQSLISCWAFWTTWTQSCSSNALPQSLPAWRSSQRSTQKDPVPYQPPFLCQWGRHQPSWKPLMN", "format": "functional, Cricetulus griseus"}, "[5]": {"experiment": "growth suppression of PTEN-null colon cells, dose response, cell-based, HCT116 PTEN knockout (AID 1047);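 note: HCT116 colon tumor cells with PTEN knocked out; cells exposed to compound for 60 hours before readout; potency for loss of cell viability measured by luminescence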", "format": "functional"}, "[6]": {"experiment": "growth suppression of beta-catenin-knockout colon cells, dose response, cell-based, HCT116, human colon tumor (AID 1045);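 note: HCT116 colon tumor cells with beta catenin knocked out; cells exposed to compound for 60 hours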", "format": "functional"}, "[7]": {"experiment": "Luminescence Cell-Based Dose Retest to Confirm Inhibitors of Cancer Stem Cells. [Related pubchem assays (depositor defined):AID2717, AID2721]", "format": "functional", "settings": "Homo sapiens"}, "[8]": {"biological_target": "Intestinal-type alkaline phosphatase (Homo sapiens, UniProt P09923)", "sequence (P09923 whole entry)": "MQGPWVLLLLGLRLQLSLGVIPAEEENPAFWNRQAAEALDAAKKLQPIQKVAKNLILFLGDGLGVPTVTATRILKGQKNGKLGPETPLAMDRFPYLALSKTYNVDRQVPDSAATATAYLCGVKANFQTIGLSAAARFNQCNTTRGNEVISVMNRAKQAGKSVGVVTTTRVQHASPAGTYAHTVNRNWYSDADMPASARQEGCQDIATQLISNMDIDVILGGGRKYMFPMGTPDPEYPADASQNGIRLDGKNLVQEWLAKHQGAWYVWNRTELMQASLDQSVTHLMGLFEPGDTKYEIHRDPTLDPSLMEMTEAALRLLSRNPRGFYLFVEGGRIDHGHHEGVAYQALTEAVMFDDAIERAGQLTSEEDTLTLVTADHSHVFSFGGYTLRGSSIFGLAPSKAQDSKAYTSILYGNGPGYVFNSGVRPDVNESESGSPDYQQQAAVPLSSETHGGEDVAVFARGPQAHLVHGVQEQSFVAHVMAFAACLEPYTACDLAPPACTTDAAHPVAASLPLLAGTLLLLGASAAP", "experiment": "human intestinal alkaline phosphatase activators, dose response, biochemical, luminescence, uHTS hits (AID 463120)", "format": "functional"}, "Coagulation factor XII": {"biological_target": "T3, Coagulation factor XII (Homo sapiens, UniProt P00748)", "T3 sequence (P00748 whole entry)": "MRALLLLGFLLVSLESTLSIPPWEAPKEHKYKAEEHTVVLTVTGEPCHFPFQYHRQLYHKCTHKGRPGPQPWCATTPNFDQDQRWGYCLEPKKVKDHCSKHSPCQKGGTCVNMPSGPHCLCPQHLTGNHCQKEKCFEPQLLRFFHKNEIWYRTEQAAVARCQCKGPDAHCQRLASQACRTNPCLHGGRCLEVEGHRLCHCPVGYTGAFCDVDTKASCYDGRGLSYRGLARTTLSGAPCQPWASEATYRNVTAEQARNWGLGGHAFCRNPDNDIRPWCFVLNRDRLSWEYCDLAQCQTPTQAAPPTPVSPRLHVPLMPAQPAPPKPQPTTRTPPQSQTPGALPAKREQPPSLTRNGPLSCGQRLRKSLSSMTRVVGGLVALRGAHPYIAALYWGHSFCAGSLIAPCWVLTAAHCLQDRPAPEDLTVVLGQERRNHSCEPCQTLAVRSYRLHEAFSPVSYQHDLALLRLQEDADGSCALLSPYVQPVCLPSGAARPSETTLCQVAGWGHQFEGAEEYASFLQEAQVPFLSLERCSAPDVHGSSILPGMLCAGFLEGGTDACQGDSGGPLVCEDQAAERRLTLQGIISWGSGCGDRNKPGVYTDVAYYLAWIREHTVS", "experiment": "FXIIa inhibitor potency, concentration-response, biochemical (AID 716)", "format": "functional"}, "[9]": {"experiment": "HEp-2 cell cytotoxicity, dose response, cytotoxicity control for RSV inhibitor project, HTS (AID 2410)", "format": "functional", "settings": "human respiratory syncytial virus"}, "CAAX prenyl protease 2": {"biological_target": "CAAX prenyl protease 2 (Saccharomyces cerevisiae S288c, UniProt Q03530)", "sequence (Q03530 whole entry)": "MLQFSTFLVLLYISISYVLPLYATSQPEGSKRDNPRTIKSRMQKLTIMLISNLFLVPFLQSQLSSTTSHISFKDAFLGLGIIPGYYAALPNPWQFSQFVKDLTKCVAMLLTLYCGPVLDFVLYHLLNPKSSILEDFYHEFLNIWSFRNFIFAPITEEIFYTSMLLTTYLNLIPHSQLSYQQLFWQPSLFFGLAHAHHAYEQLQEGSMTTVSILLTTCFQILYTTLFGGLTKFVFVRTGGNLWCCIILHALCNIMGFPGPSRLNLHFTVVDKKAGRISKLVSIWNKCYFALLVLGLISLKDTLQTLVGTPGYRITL", "format": "biochemical"}, "[10]": {"biological_target": "T4, Mannose-6-phosphate isomerase (Homo sapiens, UniProt P34949)", "T4 sequence (P34949 whole entry)": "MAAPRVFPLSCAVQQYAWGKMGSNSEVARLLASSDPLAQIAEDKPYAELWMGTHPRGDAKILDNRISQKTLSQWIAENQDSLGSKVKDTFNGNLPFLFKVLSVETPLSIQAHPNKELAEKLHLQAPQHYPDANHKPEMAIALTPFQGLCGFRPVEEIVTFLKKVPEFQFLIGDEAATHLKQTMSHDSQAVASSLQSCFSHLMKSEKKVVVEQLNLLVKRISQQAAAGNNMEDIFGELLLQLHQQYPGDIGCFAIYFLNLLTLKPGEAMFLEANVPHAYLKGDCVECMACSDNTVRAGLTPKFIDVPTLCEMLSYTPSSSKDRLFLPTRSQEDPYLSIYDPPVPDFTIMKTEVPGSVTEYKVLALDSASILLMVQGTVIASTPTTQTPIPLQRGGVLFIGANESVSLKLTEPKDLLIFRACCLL", "experiment": "PMI enzyme inhibitors, confirmation, biochemical, fluorescence intensity (AID 1535)"}, "[11]": {"biological_target": "Phosphoethanolamine/phosphocholine phosphatase (Homo sapiens, UniProt Q8TCT1)", "sequence (Q8TCT1 whole entry)": "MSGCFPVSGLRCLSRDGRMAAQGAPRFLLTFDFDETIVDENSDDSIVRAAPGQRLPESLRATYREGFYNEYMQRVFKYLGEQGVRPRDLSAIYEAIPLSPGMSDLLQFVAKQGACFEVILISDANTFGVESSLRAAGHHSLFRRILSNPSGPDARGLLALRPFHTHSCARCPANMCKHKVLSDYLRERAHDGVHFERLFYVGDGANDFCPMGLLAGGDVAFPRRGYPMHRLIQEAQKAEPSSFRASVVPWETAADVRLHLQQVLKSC", "experiment": "SAR assay for compounds that inhibit PHOSPHO1. [Related pubchem assays (depositor defined):AID1545, AID1565, AID1574]"}, "Phosphomannomutase 2": {"biological_target": "T5, Phosphomannomutase 2 (Homo sapiens, UniProt O15305)", "T5 sequence (O15305 whole entry)": "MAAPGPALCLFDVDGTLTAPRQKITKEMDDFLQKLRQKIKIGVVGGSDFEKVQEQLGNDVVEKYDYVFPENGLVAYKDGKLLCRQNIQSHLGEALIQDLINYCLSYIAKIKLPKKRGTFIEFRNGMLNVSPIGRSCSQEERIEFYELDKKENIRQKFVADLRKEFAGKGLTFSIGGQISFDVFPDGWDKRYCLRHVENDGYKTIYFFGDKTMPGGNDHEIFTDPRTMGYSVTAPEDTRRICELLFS", "experiment": "Counter screen SAR assay for PMM2 inhibitors via a fluorescence intensity assay. [Related pubchem assays (depositor defined):AID1545, AID1574]"}}, "note": "Activity calls are given as the source filed them."}
{"molecule": "Cn1nc(-c2ccc(Cl)cc2)cc1C(=O)NC1CCCc2c1cnn2-c1ccccc1F", "note": "(configuration not stated);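 for Absolute IC50 (XBP1): confirmatory dose-response counter-screen serving a CHOP assay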", "values": [{"measurement": "IC50", "setting": "[1]", "value": "1.92 µM (active)"}, {"measurement": "IC50", "setting": "[2]", "value": "1.72 µM (active)"}, {"measurement": "IC50", "setting": "Tumor necrosis factor", "value": "2.72 µM (active)"}, {"measurement": "IC50", "setting": "HEK293", "value": "> 20 µM (inactive)"}]}
{"molecule": "O=C(CN1CCCc2ccccc21)c1ccc(O)c(O)c1", "values": [{"measurement": "IC50", "setting": "[3]", "value": "4.87 µM (active)"}, {"measurement": "IC50", "setting": "[4]", "value": "39.3 µM (active)"}]}
{"molecule": "Cc1ccc(NC(S)=NC(NC(=O)Cc2cccc3ccccc23)C(Cl)(Cl)Cl)cc1", "note": "(configuration not stated)", "values": [{"measurement": "Absolute IC50 (XBP1)", "setting": "X-box-binding protein 1", "value": 10, "unit": "µM"}, {"measurement": "EC50", "setting": "[5]", "value": "13.1 µM (active)"}, {"measurement": "EC50", "setting": "[6]", "value": "18.3 µM (active)"}, {"measurement": "AC50", "setting": "[7]", "value": "2.18 µM (active)"}]}
{"molecule": "CCOc1ccc(CC(=O)NNC(=S)NCCc2ccccc2)cc1", "values": [{"measurement": "EC50", "setting": "[8]", "value": "13.1 µM (active)"}]}
{"molecule": "CCCSc1nnc(-c2c[nH]c3ccccc23)n1C", "values": [{"measurement": "IC50", "setting": "Coagulation factor XII", "value": "> 50 µM (inactive)"}]}
{"molecule": "O=C(CCc1ccccc1)Nc1sc2c(c1C(=O)O)CCCC2", "values": [{"measurement": "IC50", "setting": "[1]", "value": "> 20 µM (inactive)"}, {"measurement": "CC50", "setting": "[9]", "value": "42.7 µM (active)"}, {"measurement": "IC50", "setting": "cells", "value": "39.6 µM (active)"}, {"measurement": "IC50", "setting": "[2]", "value": "> 20 µM (inactive)"}, {"measurement": "IC50", "setting": "Tumor necrosis factor", "value": "> 20 µM (inactive)"}, {"measurement": "IC50", "setting": "HEK293", "value": "> 20 µM (inactive)"}, {"measurement": "AC50", "setting": "[7]", "value": "28.3 µM (active)"}]}
{"molecule": "COc1ccc2cc(CN(CCO)C(=O)c3ccccc3F)c(=O)[nH]c2c1", "values": [{"measurement": "IC50", "setting": "Coagulation factor XII", "value": "> 50 µM (inactive)"}]}
{"molecule": "CN(C)CCNC(=O)c1cccn(Cc2cc(C(F)(F)F)cc(C(F)(F)F)c2)c1=O", "values": [{"measurement": "AC50", "setting": "CAAX prenyl protease 2", "value": "> 100 µM (inactive)"}]}
{"molecule": "O=c1c2c([N+](=O)[O-])cc([N+](=O)[O-])cc2sn1-c1ccccc1F", "values": [{"measurement": "IC50", "setting": "[10]", "value": "1.45 µM (active)"}, {"measurement": "IC50", "setting": "[11]", "value": "0.0233 µM (active)"}, {"measurement": "IC50", "setting": "Phosphomannomutase 2", "value": "4.22 µM (active)"}]}
{"molecule": "O=c1c2c([N+](=O)[O-])cc([N+](=O)[O-])cc2sn1-c1ccc(F)cc1", "values": [{"measurement": "IC50", "setting": "[10]", "value": "0.709 µM (active)"}, {"measurement": "IC50", "setting": "[11]", "value": "0.1 µM (active)"}, {"measurement": "IC50", "setting": "Phosphomannomutase 2", "value": "2.46 µM (active)"}]}
